Experiments:
[1] = test system: EA (enzyme acceptor fragment of β-galactosidase); test: Enzyme Fragment Complementation (EFC) assay; format: biochemical; conditions: 50 nM ED, EA plus chemiluminescence substrate, 60 min room temperature; compared to linear ED (cysteines capped with maleimide)
Procedure: For determination of EFC activity, 10 μL of 50 nM cyclic ED-Lactamase substrate (cED47mer) or 10 μl linear ED (Cysteines capped with maleimide, DiscoveRx, Fremont, Calif.) 50 nM was added to 20 μl EDDB Enzyme donor dilution buffer (MES 10 mM, NaCl 200 mM, EGTA 10 mM, BSA 2 mg/ml, NaN3 14.6 mM) (DiscoveRx, Fremont, Calif.) in a 384-well white plate.

TEM-1 lactamase = TEM-1 lactamase (Escherichia coli, UniProt P62593); conditions: cED47mer 50 nM, CHOK1 cell lysates, 3-hour incubation with varying TEM1 lactamase (picomole), read 1 hr after EA and substrate
Procedure: The assay comprises two basic steps: • 1) hydrolysis of the lactam in the cyclic ED lactamase substrate (cED 47mer) by the lactamase to yield a linear ED; and • 2) detection of the linear ED by EA and β-galactosidase chemiluminescent substrate. The lactamase reaction step comprises 101 of cell lysate (<4000 CHOK1 cells, DiscoveRx, Fremont, Calif.) or cell lysis buffer (part # 30-175, DiscoveRx, Fremont, Calif.), 10 μl cED47mer substrate at 50 nM and 10 μl of lactamase (TEM-1, Invitrogen Part # PV3575) at varying concentrations. The reaction mixture is then incubated at ambient temperature for various time intervals. The detection step comprises addition of 10 μL1 EA (1-2 μM, DiscoveRx, Fremont, Calif.) and 10 μl chemiluminescent substrate reagent (Applied Biosystems, Foster City, Calif.).
The chemiluminescence was read 1 hr after addition of EA and chemiluminescent substrate on a Packard Lumincount Reader (Packard Instruments, Meridien, Conn.) with the PMT set at 1100V and read time 1 second per well.

## cED47mer: 47-mer β-galactosidase enzyme donor peptide (SEQ ID NO:1) cyclized through its two cysteines with bis-maleimide cephem compound 3 (CSLAVVLQQRRDWENPGVTQLNRLAAHPPFASWRNSEEARTDCPSQQL; cyclized via cysteines with bis-maleimide cephem compound 3; …ON)
[1]
  EFC activity (FIG. 4): reduction of EFC activity
TEM-1 lactamase
  chemiluminescence signal after cleavage with lactamase (FIG. 5): increased with concentration of E. coli TEM1 lactamase (picomole) in a dose dependent fashion

Reference: patent publication US7537910B2, “Lactamase amplification substrate” (Discoverx Corp., priority 2005, dated 2009)
